Tests used:
[1] = test system: GF2E or GF3E with NF3V1E (G5E4TCAT reporter); assay: Transcriptional induction: CAT activity in Jurkat TAg cells transfected with GAL4-FKBP and FKBP-VP16 chimeras; type: cell-based, human; details: 1 μM ligand, 12 hours; samples 5 (GF2E, NF3V1E) and 6 (GF3E, NF3V1E) in the presence of ligand
Protocol: Jurkat TAg cells were transfected with the indicated constructs (5 μg of each construct) by electroporation (960 μF, 250 v). After 24 hours, the cells were resuspended in fresh media and aliquoted. […] After 12 hours, the cells were washed and cellular extracts were prepared by repeated freeze-thaw. Chloramphenicol acetyltransferase (CAT) activity was measured by standard protocols. Molecular Cloning: A Laboratory Manual, Sambrook et al. eds. (1989) CSH Laboratory, pp. 16-59 ff. […]

[2] = molecular target: T1, MZF3E (Mus musculus, UniProt P24161); assay: Protein-tyrosine phosphorylation and kinase recruitment in Jurkat cells stably transfected with MZF3E; type: cell-based, human
T1 construct: expressed in transfected cells
Protocol: Tyrosine phosphorylation after treatment of cells with either anti-CD3 MAb or FK1012 was detected using monoclonal alpha-phosphotyrosine antibodies. Whole cell lysates were analysed at varying times after stimulation.

[3] = test system: MZF3Eflu / MZF3Eflag; assay: Coimmunoprecipitation of epitope-tagged chimeras (anti-Flag agarose) in Jurkat T cells; type: cell-based, human
[4] = Immunosuppression / toxicity in cell culture; type: cell-based
[5] = molecular target: T1, MZF3E; assay: NFAT-SEAP reporter via myristoylated chimeric CD3/FKBP12 (MZF3E) receptor in Jurkat T cells; type: cell-based, human
[6] = test system: NFAT; assay: NFAT reporter (secreted alkaline phosphatase) after cross-linking chimeric receptor TAC/TAC/Z with anti-TAC mAb in TAg Jurkat cells; type: cell-based, human; details: addition of 1 ng/ml FK506; TTZ receptor, bound anti-TAC mAb
Description: The plasmid pSXNeo/IL2 (IL2-SX) (FIG. 1), which contains the placental secreted alkaline phosphatase gene under the control of human IL-2 promoter (−325 to +47; MCB(86) 6, 3042), and related plasmid variants (i.e. NFAT-SX, NF B-SX, OAP/Oct1-SX, and AP-1-SX) in which the reporter gene is under the transcriptional control of the minimal IL-2 promoter (−325 to −294 and -72 to −47) combined with synthetic oligomers containing various promoter elements (i.e. NFAT, NKB, OAP/Oct-1, and AP1, respectively), were made by three piece ligations of 1) pPL/SEAP (Berger, et al., Gene (1988) 66, 1) cut with SspI and HindIII; 2) pSV2/Neo (Southern and Berg, J. Mol. Appl. Genet. (1982) 1, 332) cut with NdeI, blunted with Klenow, then cut with Pvul; and 3) various promoter-containing plasmids (i.e. NFAT-CD8, B-CD8, cx121acZ-Oct-1, AP1-LUCIF3H, or cx151L2) described below) cut with PvuI and HindIII, NFAT-CD8 contains 3 copies of the NFAT-binding site (−286 to […]; Genes and Dev. (1990) 4, 1823) and cx12lacZ-Oct contains 4 copies of the OAP/Oct-1(ARRE-1) binding site (MCB, (1988) 8, 1715) from the human IL-2 enhancer; B-CD8 contains 3 copies of the NFB binding site from the murine light chain (EMBO (1990) 9, 4425) and AP1-LUCIF3H contains 5 copies of the AP-1 site (5′-TGA-[…]-3′ [SEQ ID NO:3]) from the metallothionen promoter. […]

[7] = test system: TAg-Jurkat cells; assay: Inhibitory activity of drugs on ionomycin/PMA-stimulated TAg-Jurkat cells (β-galactosidase, MUG fluorescence); type: cell-based, human
Protocol: Ionomycin (1 μm) and PMA (25 ng/ml) were added to 10^5 TAg-Jurkat cells. In addition, titrations of the various drugs were added. After 5 hours the cells were lysed in mild detergent (i.e. Triton X-100) and the extracts were incubated with the β-galactosidase substrate, MUG (methyl galactosidyl umbelliferone) for 1 hour. A glycine/EDTA stop buffer was added and the extracts assayed for fluorescence. Each data point obtained was the average of two samples and the experiment was performed several times with similar results.

T1 sequence (P24161 with tags, fused parts or gaps limits assumed): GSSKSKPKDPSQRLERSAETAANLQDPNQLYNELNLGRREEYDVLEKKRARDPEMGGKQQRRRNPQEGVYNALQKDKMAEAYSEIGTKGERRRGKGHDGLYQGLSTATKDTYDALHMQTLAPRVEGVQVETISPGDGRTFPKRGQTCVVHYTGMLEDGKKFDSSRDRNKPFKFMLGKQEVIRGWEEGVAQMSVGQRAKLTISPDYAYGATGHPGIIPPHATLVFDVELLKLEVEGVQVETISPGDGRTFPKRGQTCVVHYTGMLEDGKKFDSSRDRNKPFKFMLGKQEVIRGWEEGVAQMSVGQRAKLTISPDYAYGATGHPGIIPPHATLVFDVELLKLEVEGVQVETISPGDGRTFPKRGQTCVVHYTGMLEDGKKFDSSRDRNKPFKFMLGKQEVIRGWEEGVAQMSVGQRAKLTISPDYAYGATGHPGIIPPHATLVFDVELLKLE
MZF3Eflu / MZF3Eflag, sequence (P62942 2-108 limits assumed): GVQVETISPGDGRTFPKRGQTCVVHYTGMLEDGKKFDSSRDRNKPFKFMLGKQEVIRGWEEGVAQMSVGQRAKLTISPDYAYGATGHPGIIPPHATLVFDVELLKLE
GF2E or GF3E with NF3V1E (G5E4TCAT reporter), sequence (P62942 2-108 limits assumed): as above

FK1012-A (p-xylylenediamine bridge) [FK1012A]
CAT activity [1]: CAT activity present as expected
recruitment of kinase activity to the zeta-chain (in vitro kinase assay after immunoprecipitation) [2]: resulted in the recruitment of kinase activity to the zeta-chain
dimerization of FKBP monomer constructs MZF1Eflu and MZF1Eflag [3]: also dimerized by FK1012A
coimmunoprecipitation of MZF3Eflu with MZF3Eflag ([3]; 1 μM, Jurkat T cells coexpressing both chimeras): MZF3Eflag interacts with MZF3Eflu and is coimmunoprecipitated

CO[C@H]1C[C@@H](C)C/C(C)=C/[C@@H](CCOC(=O)NCc2ccccc2)C(=O)C[C@H](O)[C@@H](C)[C@@H](/C(C)=C/[C@@H]2CC[C@@H](O)[C@H](OC)C2)OC(=O)[C@@H]2CCCCN2C(=O)C(=O)[C@]2(O)O[C@H]1[C@@H](OC)C[C@H]2C [FK506-M]
toxicity [4]: nontoxic
termination of FK1012-induced signaling (deaggregation) [5]: FK1012-induced signaling can be terminated

C=CC[C@@H]1/C=C(\C)C[C@H](C)C[C@H](OC)[C@H]2O[C@@](O)(C(=O)C(=O)N3CCCC[C@H]3C(=O)O[C@H](/C(C)=C/[C@@H]3CC[C@@H](O)[C@H](OC)C3)[C@H](C)[C@@H](O)CC1=O)[C@H](C)C[C@@H]2OC [FK506, reference compound]
alkaline phosphatase reporter activity due to NFAT [6]: dropped all activity due to NFAT to background levels
FK1012B stimulation of NFAT reporter ([5]; addition of 1 ng/ml FK506): dropped all stimulations to near background levels

FK1012-B (diaminodecane-1,10 bridge) [FK1012B]
stimulation by the compound itself ([7]; control experiment): not stimulatory by itself
mitogen activity ([7]; ionomycin 1 μm + PMA 25 ng/ml, highest concentration 5 μg/ml): appears to augment mitogen activity slightly
